From patent US12565490B2, “Inhibitors of Receptor Interacting Protein Kinase I for the treatment of disease” (Board of Regents, The University of Texas System, priority 2020, dated 2026)

Test system: human monocytic cell line U937
Assay: Human U937 cellular necroptosis assay
Type: cell-based
Conditions: U-937; U937 cells stimulated with 25 ng/mL human TNFalpha and 25 μM z-VAD-FMK; 22 hr; viability by Cell Titer-Glo 2.0; read-out: hU937 IC50
Experimental: Human U937 Cellular Necroptosis Assay
The human monocytic cell line U937 (CRL-1593.2) may be purchased from ATCC. The cells are routinely maintained in RPMI-1640 Medium (Gibco, Catalog #11875-093) supplemented with 10% heat inactivated fetal bovine serum (Gibco, Catalog #16140-071), 100 units/mL penicillin and 100 μg/mL streptomycin (Gibco, Catalog #15140-122), in a humidified incubator (37° C., 5% CO2). For the assay, cells are resuspended in RPMI-1640 phenol red free Media (Gibco, Catalog #11835-030) supplemented with 10% fetal bovine serum (Sigma, Catalog #F2442), 100 units/mL penicillin and 100 ug/mL streptomycin. Cells are stimulated with 25 ng/mL human TNFalpha (Cell Sciences, Catalog #CSI15659B) and 25 μM z-VAD-FMK (R&D Systems, Catalog #FMK001) followed by seeding 5000 cells per well in a volume of 40 μL to a white, CulturPlate-384 (Perkin Elmer, Catalog #6007680). Stock solutions of the test compounds are prepared in 100% DMSO (Sigma, Catalog #D2650) and serially diluted 1:3 using 100% DMSO. Compounds are additionally diluted 1:40 in assay medium, and 10 μL/well was transferred to the plate. Following the compound addition, the plate is incubated at 37° C. and 5% CO2 for 22 hr. After 22 hr, viability is assessed with the addition of 20 μL of Cell Titer-Glo 2.0 (Promega, Catalog #G9243). The tissue culture plate is shaken on an orbital shaker at 300 RPM for 15 minutes at room temperature in the dark. Luminescence is measured using a PerkinElmer Envision™ plate reader. IC50 values are calculated using a four-parameter logistic curve fit using Genedata Screener software. Compounds disclosed herein are expected to have activity in this assay.

Structure (SMILES)	IC50 [µM]
O=C(NC1CCc2ccccc2NC1=O)c1nccc(-c2ccccc2)n1 (stereo not drawn) [Example 4, N-(2-oxo-2,3,4,5-tetrahydro-1H-benzo[b]azepin-3-yl)-4-phenylpyrimidine-2-carboxamide]	2.16
O=C(NC1CCc2ccccc2NC1=O)c1ncc(C2CC2)c(-c2ccccc2)n1 (stereo not drawn) [Example 2, 5-cyclopropyl-N-(2-oxo-2,3,4,5-tetrahydro-1H-benzo[b]azepin-3-yl)-4-phenylpyrimidine-2-carboxamide]	0.509
CN1C(=O)[C@@H](NC(=O)c2ncc(Cl)c(-c3ccc(F)cc3F)n2)COc2cc(F)cnc21 [Example 73, (S)-5-chloro-4-(2,4-difluorophenyl)-N-(8-fluoro-5-methyl-4-oxo-2,3,4,5-tetrahydropyrido[3,2-b]-[1,4]oxazepin-3-yl)pyrimidine-2-carboxamide]	0.0114
[2H]C([2H])([2H])N1C(=O)[C@@H](NC(=O)c2ncc(Cl)c(-c3cccc(F)c3F)n2)COc2cc(F)cnc21 [Example 168, (S)-5-chloro-4-(2,3-difluorophenyl)-N-(8-fluoro-5-(methyl-d3)-4-oxo-2,3,4,5-tetrahydropyrido[3,2-b][1,4]oxazepin-3-yl)pyrimidine-2-carboxamide]	0.0452
CN1C(=O)[C@@H](NC(=O)c2ncc(Cl)c(-c3ccc(F)cc3F)n2)COc2cc(Cl)cnc21 [Example 96, (S)-5-chloro-N-(8-chloro-5-methyl-4-oxo-2,3,4,5-tetrahydropyrido[3,2-b]-[1,4]oxazepin-3-yl)-4-(2,4-difluorophenyl)pyrimidine-2-carboxamide]	0.00833
CN1C(=O)[C@@H](NC(=O)c2ncc(F)c(-c3ccc(F)cc3)n2)COc2cc(F)cnc21 [Example 66, (S)-5-fluoro-N-(8-fluoro-5-methyl-4-oxo-2,3,4,5-tetrahydropyrido[3,2-b]-[1,4]oxazepin-3-yl)-4-(4-fluorophenyl)pyrimidine-2-carboxamide]	0.106
CN1C(=O)[C@@H](NC(=O)c2ncc(Cl)c(-c3cccc(F)c3)n2)COc2cccnc21 [Example 48, (S)-5-chloro-4-(3-fluorophenyl)-N-(5-methyl-4-oxo-2,3,4,5-tetrahydro-pyrido[3,2-b][1,4]oxazepin-3-yl)pyrimidine-2-carboxamide]	0.0132
CN1C(=O)[C@@H](NC(=O)c2ncc(Cl)c(-c3cccc(Cl)c3)n2)COc2cc(Cl)cnc21 [Example 102, (S)-5-chloro-N-(8-chloro-5-methyl-4-oxo-2,3,4,5-tetrahydropyrido[3,2-b]-[1,4]oxazepin-3-yl)-4-(3-chlorophenyl)pyrimidine-2-carboxamide]	0.0127
CN1C(=O)[C@@H](NC(=O)c2ncc(Cl)c(-c3ccc(F)cc3F)n2)COc2cccnc21 [Example 50, (S)-5-chloro-4-(2,4-difluorophenyl)-N-(5-methyl-4-oxo-2,3,4,5-tetrahydro-pyrido[3,2-b][1,4]oxazepin-3-yl)pyrimidine-2-carboxamide]	0.00929
Cc1cc(F)ccc1-c1ccnc(C(=O)N[C@H]2COc3cc(Cl)cnc3N(C)C2=O)n1 [Example 89, (S)-N-(8-chloro-5-methyl-4-oxo-2,3,4,5-tetrahydro-pyrido[3,2-b][1,4]oxazepin-3-yl)-4-(4-fluoro-2-methylphenyl)pyrimidine-2-carboxamide]	0.136
Cc1cnc(C(=O)N[C@@H]2C(=O)N(C)c3ncccc3O[C@@H]2C)nc1-c1ccccc1 [Example 16, N-((2R,3S)-2,5-dimethyl-4-oxo-2,3,4,5-tetrahydropyrido[3,2-b][1,4]oxazepin-3-yl)-5-methyl-4-phenylpyrimidine-2-carboxamide]	0.0361
O=C(NC1CCc2ccccc2NC1=O)c1nc(-c2ccccc2)c(Cl)cc1Cl (stereo not drawn) [Example 8, 3,5-dichloro-N-(2-oxo-2,3,4,5-tetrahydro-1H-benzo[b]azepin-3-yl)-6-phenylpicolinamide]	0.354
Cc1cnc(C(=O)N[C@H]2COc3cc(C#N)ccc3N(C)C2=O)nc1N1CCCCC1 [Example 14, (S)-N-(8-cyano-5-methyl-4-oxo-2,3,4,5-tetrahydro-benzo[b][1,4]oxazepin-3-yl)-5-methyl-4-(piperidin-1-yl)-pyrimidine-2-carboxamide]	0.119
CN1C(=O)[C@@H](NC(=O)c2ncc(Cl)c(-c3cccc4[nH]ncc34)n2)COc2cc(Cl)cnc21 [Example 114, (S)-5-chloro-N-(8-chloro-5-methyl-4-oxo-2,3,4,5-tetrahydropyrido[3,2-b]-[1,4]oxazepin-3-yl)-4-(1H-indazol-4-yl)pyrimidine-2-carboxamide]	0.0631
Cc1ccc(C(=O)N[C@H]2COc3cc(C#N)ccc3N(C)C2=O)nc1Br [Example 33, (S)-6-bromo-N-(8-cyano-5-methyl-4-oxo-2,3,4,5-tetrahydro-benzo[b][1,4]oxazepin-3-yl)-5-methylpicolinamide]	≥ 10
CN1C(=O)[C@@H](NC(=O)c2ncc(Cl)c(-c3ccc(F)cc3F)n2)COc2cc(CN3CCn4ncnc4C3)ccc21 [Example 154, (S)-5-chloro-4-(2,4-difluorophenyl)-N-(8-((5,6-dihydro-[1,2,4]triazolo[1,5-a]pyrazin-7(8H)-yl)methyl)-5-methyl-4-oxo-2,3,4,5-tetrahydrobenzo[b]-[1,4]oxazepin-3-yl)pyrimidine-2-carboxamide]	0.0321
Cc1cnc(C(=O)N[C@H]2COc3cc(F)cnc3N(C)C2=O)nc1C1CCOCC1 [Example 87, (S)-N-(8-fluoro-5-methyl-4-oxo-2,3,4,5-tetrahydro-pyrido[3,2-b][1,4]oxazepin-3-yl)-5-methyl-4-(tetrahydro-2H-pyran-4-yl)pyrimidine-2-carboxamide]	0.157
Cc1cnc(C(=O)N[C@H]2COc3cc(Cl)cnc3N(C)C2=O)nc1-c1ccc2nccn2c1 [Example 124, (S)-N-(8-chloro-5-methyl-4-oxo-2,3,4,5-tetrahydropyrido[3,2-b][1,4]oxazepin-3-yl)-4-(imidazo[1,2-a]pyridin-6-yl)-5-methylpyrimidine-2-carboxamide]	0.165
Cc1ccc(-c2nc(C(=O)N[C@H]3COc4cc(C#N)ccc4N(C)C3=O)ncc2Cl)c(F)c1 [Example 139, (S)-5-chloro-N-(8-cyano-5-methyl-4-oxo-2,3,4,5-tetrahydrobenzo[b]-[1,4]oxazepin-3-yl)-4-(2-fluoro-4-methylphenyl)pyrimidine-2-carboxamide]	0.0326
CN1C(=O)[C@@H](NC(=O)c2ncc(Cl)c(-c3ccc(F)cc3F)n2)COc2ccc(-c3cn[nH]c3)cc21 [Example 151]	0.013
CN1C(=O)[C@@H](NC(=O)c2ncc(Cl)c([C@@H]3COCCO3)n2)COc2cc(Cl)cnc21 [Example 163a, 5-chloro-N—((S)-8-chloro-5-methyl-4-oxo-2,3,4,5-tetrahydropyrido[3,2-b][1,4]oxazepin-3-yl)-4-((R)-1,4-dioxan-2-yl)pyrimidine-2-carboxamide]	0.172
Cc1cnc(C(=O)N[C@H]2COc3cc(C#N)ccc3N(C)C2=O)nc1C1CCCOC1 (stereo partly drawn) [Example 43, N-((S)-8-cyano-5-methyl-4-oxo-2,3,4,5-tetrahydro-benzo[b][1,4]oxazepin-3-yl)-5-methyl-4-(tetrahydro-2H-pyran-3-yl)pyrimidine-2-carboxamide]	0.154
Cc1cnc(C(=O)N[C@H]2CCc3ccccc3NC2=O)nc1-c1cccc(F)c1 [Example 12, (S)-4-(3-fluorophenyl)-5-methyl-N-(2-oxo-2,3,4,5-tetrahydro-1H-benzo[b]azepin-3-yl)pyrimidine-2-carboxamide]	0.0146
CN1C(=O)[C@@H](NC(=O)c2ncc(Cl)c(-c3cncnc3)n2)COc2cc(Cl)cnc21 [Example 111, (S)-5-chloro-N-(8-chloro-5-methyl-4-oxo-2,3,4,5-tetrahydropyrido[3,2-b]-[1,4]oxazepin-3-yl)-[4,5′-bipyrimidine]-2-carboxamide]	0.485
Cc1cnc(C(=O)N[C@H]2COc3cc(C#N)ccc3N(C)C2=O)nc1-c1ccc(F)cc1F [Example 38, (S)-N-(8-cyano-5-methyl-4-oxo-2,3,4,5-tetrahydro-benzo[b][1,4]oxazepin-3-yl)-4-(2,4-difluorophenyl)-5-methyl-pyrimidine-2-carboxamide]	0.0189
Cc1cnc(C(=O)N[C@H]2COc3cc(F)cnc3N(C)C2=O)nc1-c1ccccc1F [Example 88, (S)-N-(8-fluoro-5-methyl-4-oxo-2,3,4,5-tetrahydro-pyrido[3,2-b][1,4]oxazepin-3-yl)-4-(2-fluorophenyl)-5-methylpyrimidine-2-carboxamide]	0.0137
CN1C(=O)[C@@H](NC(=O)c2ncc(F)c(-c3ccc(F)cc3)n2)COc2cc(Cl)cnc21 [Example 91, (S)-N-(8-chloro-5-methyl-4-oxo-2,3,4,5-tetrahydro-pyrido[3,2-b][1,4]oxazepin-3-yl)-5-fluoro-4-(4-fluorophenyl)-pyrimidine-2-carboxamide]	0.0332
